Paper PMC11890623, “Pseudomonas aeruginosa acyl-CoA dehydrogenases and structure-guided inversion of their substrate specificity” (Nature Communications, 2025)

How the values were obtained:
FadE1 = molecular target: T1, FadE1 (Pseudomonas aeruginosa, UniProt Q9I612); assay: X-ray crystal structure, […] Å; type: binding
T1 construct: gene PA0506; full-length ORF, His6 tag removed by TEV

FadE2 = molecular target: T2, FadE2 (Pseudomonas aeruginosa, UniProt Q9I610); assay: X-ray crystal structure, […] Å; type: binding
T2 construct: gene PA0508; full-length ORF, His6 tag removed by TEV
T2 sequence (Q9I610 entry or part of it): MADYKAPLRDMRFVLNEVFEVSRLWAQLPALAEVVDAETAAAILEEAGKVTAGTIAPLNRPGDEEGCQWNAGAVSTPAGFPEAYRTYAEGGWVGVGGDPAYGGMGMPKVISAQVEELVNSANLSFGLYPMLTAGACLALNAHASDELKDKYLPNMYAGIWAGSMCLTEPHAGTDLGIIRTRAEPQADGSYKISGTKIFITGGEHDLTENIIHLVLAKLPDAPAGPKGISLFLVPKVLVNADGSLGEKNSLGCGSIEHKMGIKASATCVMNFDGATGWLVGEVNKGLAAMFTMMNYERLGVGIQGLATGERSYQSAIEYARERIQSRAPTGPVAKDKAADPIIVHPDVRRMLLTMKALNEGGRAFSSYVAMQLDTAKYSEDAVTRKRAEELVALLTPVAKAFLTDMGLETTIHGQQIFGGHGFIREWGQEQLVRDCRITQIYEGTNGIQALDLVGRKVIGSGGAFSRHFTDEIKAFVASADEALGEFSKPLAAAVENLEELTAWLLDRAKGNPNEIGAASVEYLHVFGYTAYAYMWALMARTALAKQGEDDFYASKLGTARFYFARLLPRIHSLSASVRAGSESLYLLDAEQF

T1 sequence (Q9I612 entry or part of it): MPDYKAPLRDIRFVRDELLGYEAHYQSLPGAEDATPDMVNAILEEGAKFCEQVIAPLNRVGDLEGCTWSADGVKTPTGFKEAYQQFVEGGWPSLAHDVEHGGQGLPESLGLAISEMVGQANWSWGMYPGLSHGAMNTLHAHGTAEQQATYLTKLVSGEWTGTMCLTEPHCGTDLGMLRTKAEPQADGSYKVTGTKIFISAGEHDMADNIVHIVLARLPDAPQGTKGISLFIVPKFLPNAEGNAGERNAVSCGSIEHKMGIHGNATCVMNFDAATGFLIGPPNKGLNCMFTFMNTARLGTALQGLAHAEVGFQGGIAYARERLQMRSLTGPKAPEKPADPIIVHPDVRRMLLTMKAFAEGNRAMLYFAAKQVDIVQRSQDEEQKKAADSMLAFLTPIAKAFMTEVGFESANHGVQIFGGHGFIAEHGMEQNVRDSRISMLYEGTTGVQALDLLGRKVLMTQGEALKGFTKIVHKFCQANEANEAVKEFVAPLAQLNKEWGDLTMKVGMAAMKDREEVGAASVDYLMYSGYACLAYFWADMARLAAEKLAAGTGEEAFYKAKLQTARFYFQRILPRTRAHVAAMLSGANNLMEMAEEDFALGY

## Cc1cc2nc3c(=O)[nH]c(=O)nc-3n(C[C@H](O)[C@H](O)[C@H](O)COP(=O)(O)OP(=O)(O)OC[C@H]3O[C@@H](n4cnc5c(N)ncnc54)[C@H](O)[C@@H]3O)c2cc1C [FAD]
FadE1
  X-ray crystal structure, 2.08 Å: One FAD molecule was bound in each protomer of FadE1 and FadE2.
FadE2
  X-ray crystal structure, 1.94 Å: One FAD molecule was bound in each protomer of FadE1 and FadE2.
